Measured values taken from US20080269152A1, “Nucleic acid binding oligonucleotides” (President and Fellows of Harvard College Harvard Medical …, priority 2003, published 2008).

Each sequence was assayed on internal ribosome entry site of the Hepatitis C virus, nucleotides 1-372 (HCV-IRES) RNA (assay: Hybridization of Cy3-labeled HCV-IRES RNA to DNA 5mer array). Settings: address among the 40 most fluorescent in 3 out of 5 arrays; HCV-IRES RNA 92.7 nM, 4° C. overnight, scanned at 532 nm.
Assay type: binding
Description: A short DNA 5mer array was made to order by Combimatrix® Mukilteo, Wash. The array contained 1,000 of the […] possible DNA 5mer oligomers, and provided a separate address for each oligomer.
The target nucleic acid sequence used was the RNA transcript of the internal ribosome entry site of the Hepatitis C virus, nucleotides 1-372 (HCV-IRES). The RNA was prepared using a Megascrip™ T7 kit, nuclease free water and 5-(3aminoallyl)-UTP, which were all provided by Ambion Inc. A DNA template encoding the HCV-IRES was constructed according to standard techniques and linearized. RNA synthesis reaction mixture contained the following:
The reaction mixture was incubated at 30° C. overnight and purified using Rneasy® kit from QIAGEN, Inc. Target Sequence was then labeled using a Cy3 monoreactive dye pack from Amersham Biosciences, Inc. Dried HCV-IRES RNA was added to 20 μL of sodium carbonate (0.1 M pH 8.5) followed by 20 μL Cy3 dye solution. The reaction mixture was mixed and incubated at room temperature for 1 hour in the dark and purified using RNeasy® mini-kit.
The array was incubated with RNase free water for 30 minutes at 37° C. then washed three times with wash buffer (300 mM NaCl, 100 mM MgCl2). Hybridization was effected by adding a solution of HCV-IRES RNA (92.7 nM in 300 mM NaCl, 100 mM MgCl2 and 100 mM Tris pH 7.4) into the hybridization chamber. The array was incubated at 4° C. overnight in the dark and rinsed three times with wash buffer.
If an address corresponding to the same oligomer was selected in 3 out of 5 arrays analyzed, that oligomer was scored as likely binding ligand for the HCV-IRES RNA.
With GGCCC the “likely binding candidates for HCV-IRES” value was “likely binding candidates”.
In the case of GGGGG, the “likely binding candidates for HCV-IRES” value is reported as “likely binding candidates”.
GGTCC was tested, and the “likely binding candidates for HCV-IRES” value was “likely binding candidates”.
With GTCCC the “likely binding candidates for HCV-IRES” value was “likely binding candidates”.
With TTCCC the “likely binding candidates for HCV-IRES” value was “likely binding candidates”.
For TTCTC, the “likely binding candidates for HCV-IRES” value was “likely binding candidates”.
